# Test results reported in PubChem BioAssay AID2060882 (Molecular Pharmacology Branch, DTP, NCI, 2025).
# System: 898857-211-R-J1-PDC complex spheroids, growth % test/control
# Assay: Anticancer human tumor 898857-211-R-J1-PDC patient-derived melanoma cell line growth inhibition [RAS]
# Conditions: for IC50: curve of first compound; for viability, T/C: stronger effect = lower value
# Text: RAS pathway inhibitors in Combinations in Complex Spheroids
# A high-throughput screen of multi-cell type tumor spheroids was designed to identify active combinations of RAS pathway inhibitors and targeted small molecules. Complex spheroids include a stromal component modeled by human endothelial cells (HUVEC) and fibroblasts modeled by human mesenchymal stem cells (MSCs). The concentration ranges selected for each drug and investigational agent were based upon clinically achievable concentrations if the clinical Cmax of the agent was known.
# Compounds. The drugs and investigational agents: abemaciclib (NSC768073), cobimetinib (NSC768068), divarasib (GDC6063, NSC841802), docetaxel (NSC628503), GDC-1971 (RLY-1971, NSC841576), gemcitabine (NSC613327), inavolisib (NSC800729), ipatasertib (NSC767898), KB-0742 (NSC834161), MRTX-1133 (NSC836407), osimertinib (NSC779217), RMC-4630 (NSC839698), RMC-6236 (NSC851965), RMC-6291 (NSC852671), Ro-3306 (NSC812927), sapanisertib (NSC764658), SN-38 (NSC673596), staurosporine (NSC755774), SY5609 (NSC837396), and tovorafenib (DAY101, NSC766906), were obtained from the National Cancer Institute (NCI) Developmental Therapeutics Program Chemical Repository. The FDA-approved anticancer drug set is available from the NCI Developmental Therapeutics Program. […] The stock solutions were prepared in dimethyl sulfoxide (DMSO, Sigma-Aldrich, St. Louis, MO, cat. D2650) at 800-fold the tested concentration and stored at -70 degrees C prior to their use. All drugs and investigational agents were tested over a range starting from a high concentration at or near the clinical Cmax and decreasing in half-log increments. If the clinical Cmax for an agent had not been determined, the highest concentration tested was 10 microM.
# Cell Culture. All cells were maintained in an incubator at 37 degrees C and 5% CO2 with 95% humidity. The PDC lines were cultured according to standard operating procedures established by the NCI PDMR. All PDCs were thawed and cultured in Matrigel-coated flasks prepared with a working solution of 1X Ham's F-12 nutrient mix, without supplementation (Invitrogen, Waltham, MA, cat. 11765054), 100 U/mL penicillin-streptomycin (Invitrogen, cat. 15140122), and 2.5% Matrigel (Corning Inc., Corning, NY, cat. 354248) for the first three passages. The 362531-283-R-J2-PDC and 782815-120-R-J1-PDC lines were cultured in 6C/Colon 1B media, which includes advanced DMEM/F-12 (Thermo Fisher Scientific, cat. 12634028), 10 mM HEPES (Thermo Fisher Scientific, cat. 15630080), 1X GlutaMAX supplement (Thermo Fisher Scientific, cat. 35050061), 0.1 mg/mL primocin (InvivoGen, San Diego, CA, cat. ant-pm-2), 10% defined fetal bovine serum, heat inactivated (HyClone Laboratories Inc., Logan, UT, cat. SH30070.03HI), 50% L-WRN conditioned media (ATCC, cat. CRL-3276), 1.25 mM N-Acetyl-L-cysteine (Sigma-Aldrich, cat. A9165), 10 mM nicotinamide (Sigma-Aldrich, cat. N0636), 1X B-27 supplement (Thermo Fisher Scientific, cat. 17504044), 1X N-2 supplement (Thermo Fisher Scientific, cat. 17502048), 50 ng/mL human EGF (Thermo Fisher Scientific, cat. PHG0311), and 10 microM Y-27632 dihydrochloride (Tocris Bioscience, cat. 1254). The K12877-001-R-J1-PDC line was cultured in 6I media, which includes all 6C/Colon 1B media plus 10 ng/mL human FGF-10 (PeproTech, cat. 100-26), 1 ng/mL human FGF-2 (PeproTech, cat. 100-18B), 1 µM prostaglandin E2 (Tocris Bioscience, cat. 2296), […] hydrocortisone (Sigma-Aldrich, cat. H4001), and […] bovine insulin (Sigma-Aldrich, cat. I6634). The K86415-001-R-J1-PDC line was cultured in 6D media, which includes all 6C/Colon 1B media components minus the L-WRN conditioned media. The 485176-168-R4-J1-PDC was cultured in PANC media, which includes all 6C/Colon 1B media plus 100 ng/mL human FGF-10 (PeproTech, cat. 100-26), 500 nM SB-431542 (Selleckchem, cat. S1067), and 10 nM gastrin (Tocris Bioscience, cat. 3006). […]
# [1] = second compound 0.0316 µM, first compound 0.0316 µM
# [2] = second compound 0.0316 µM, first compound 0.1 µM
# [3] = second compound 0.0316 µM, first compound 0.316 µM
# [4] = second compound 0.0316 µM, first compound 1 µM
# [5] = second compound 0.1 µM, first compound 0.0316 µM
# [6] = second compound 0.1 µM, first compound 0.1 µM
# [7] = second compound 0.1 µM, first compound 0.316 µM
# [8] = second compound 0.1 µM, first compound 1 µM
# [9] = second compound 0.316 µM, first compound 0.0316 µM
# [10] = second compound 0.316 µM, first compound 0.1 µM
# [11] = second compound 0.316 µM, first compound 0.316 µM
# [12] = second compound 0.316 µM, first compound 1 µM
# [13] = second compound 1 µM, first compound 0.0316 µM
# [14] = second compound 1 µM, first compound 0.1 µM
# [15] = second compound 1 µM, first compound 0.316 µM
# [16] = second compound 1 µM, first compound 1 µM
# 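Also: spheroids exposed to compound for seven days before readout.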
# 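For viability, T/C in this document: 100% = DMSO vehicle control wells.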
compound,measurement,setting,value
C[C@@H](NC(=O)c1ncnc(N)c1Cl)c1ncc(C(=O)Nc2cc(C(F)(F)F)c(Cl)cn2)s1 + C#Cc1c(F)ccc2cc(O)cc(-c3ncc4c(N5CC6CCC(C5)N6)nc(OCC56CCCN5CC(F)C6)nc4c3F)c12,IC50,second compound 0.0316 µM,6.7 µM
same,IC50,second compound 0.1 µM,5.98 µM
same,IC50,second compound 0.316 µM,6.76 µM
same,IC50,second compound 1 µM,6.54 µM
same,IC50,second compound 3.16 µM,5.02 µM
same,IC50,second compound 10 µM,0.358 µM
same,"viability, T/C",[1],140%
same,"viability, T/C",[2],112%
same,"viability, T/C",[3],104%
same,"viability, T/C",[4],88.3%
same,"viability, T/C","second compound 0.0316 µM, first compound 3.16 µM",63%
same,"viability, T/C","second compound 0.0316 µM, first compound 10 µM",41.3%
same,"viability, T/C",[5],124%
same,"viability, T/C",[6],126%
same,"viability, T/C",[7],99.4%
same,"viability, T/C",[8],88.3%
same,"viability, T/C","second compound 0.1 µM, first compound 3.16 µM",65.8%
same,"viability, T/C","second compound 0.1 µM, first compound 10 µM",37.7%
same,"viability, T/C",[9],121%
same,"viability, T/C",[10],125%
same,"viability, T/C",[11],113%
same,"viability, T/C",[12],89.3%
same,"viability, T/C","second compound 0.316 µM, first compound 3.16 µM",66.3%
same,"viability, T/C","second compound 0.316 µM, first compound 10 µM",42%
same,"viability, T/C",[13],126%
same,"viability, T/C",[14],122%
same,"viability, T/C",[15],115%
same,"viability, T/C",[16],97.3%
same,"viability, T/C","second compound 1 µM, first compound 3.16 µM",63.4%
same,"viability, T/C","second compound 1 µM, first compound 10 µM",42%
same,"viability, T/C","second compound 3.16 µM, first compound 0.0316 µM",127%
same,"viability, T/C","second compound 3.16 µM, first compound 0.1 µM",126%
same,"viability, T/C","second compound 3.16 µM, first compound 0.316 µM",108%
same,"viability, T/C","second compound 3.16 µM, first compound 1 µM",86.5%
same,"viability, T/C","second compound 3.16 µM, first compound 3.16 µM",64.1%
same,"viability, T/C","second compound 3.16 µM, first compound 10 µM",31.5%
same,"viability, T/C","second compound 10 µM, first compound 0.0316 µM",77.3%
same,"viability, T/C","second compound 10 µM, first compound 0.1 µM",70.7%
same,"viability, T/C","second compound 10 µM, first compound 0.316 µM",47.3%
same,"viability, T/C","second compound 10 µM, first compound 1 µM",38.5%
same,"viability, T/C","second compound 10 µM, first compound 3.16 µM",27.4%
same,"viability, T/C","second compound 10 µM, first compound 10 µM",19%
C=CC(=O)Nc1cc(Nc2nccc(-c3cn(C)c4ccccc34)n2)c(OC)cc1N(C)CCN(C)C + C=CC(=O)N1CCN(c2nc(OCC3CCCN3C)nc3c(F)c(-c4nc(N)cc(C)c4C(F)(F)F)c(Cl)cc23)C(C)C1,IC50,second compound 0.00316 µM,0.94 µM
same,IC50,second compound 0.01 µM,> 1 µM
same,IC50,second compound 0.0316 µM,> 1 µM
same,IC50,second compound 0.1 µM,0.962 µM
same,IC50,second compound 0.316 µM,> 1 µM
same,IC50,second compound 1 µM,0.87 µM
same,"viability, T/C","second compound 0.00316 µM, first compound 0.00316 µM",98.9%
same,"viability, T/C","second compound 0.00316 µM, first compound 0.01 µM",98.9%
same,"viability, T/C","second compound 0.00316 µM, first compound 0.0316 µM",116%
same,"viability, T/C","second compound 0.00316 µM, first compound 0.1 µM",101%
same,"viability, T/C","second compound 0.00316 µM, first compound 0.316 µM",92.6%
same,"viability, T/C","second compound 0.00316 µM, first compound 1 µM",47.5%
same,"viability, T/C","second compound 0.01 µM, first compound 0.00316 µM",102%
same,"viability, T/C","second compound 0.01 µM, first compound 0.01 µM",105%
same,"viability, T/C","second compound 0.01 µM, first compound 0.0316 µM",93%
same,"viability, T/C","second compound 0.01 µM, first compound 0.1 µM",100%
same,"viability, T/C","second compound 0.01 µM, first compound 0.316 µM",96.5%
same,"viability, T/C","second compound 0.01 µM, first compound 1 µM",54.4%
same,"viability, T/C","second compound 0.0316 µM, first compound 0.00316 µM",104%
same,"viability, T/C","second compound 0.0316 µM, first compound 0.01 µM",103%
same,"viability, T/C",[1],104%
same,"viability, T/C",[2],107%
same,"viability, T/C",[3],93.6%
same,"viability, T/C",[4],58.4%
same,"viability, T/C","second compound 0.1 µM, first compound 0.00316 µM",105%
same,"viability, T/C","second compound 0.1 µM, first compound 0.01 µM",105%
same,"viability, T/C",[5],117%
same,"viability, T/C",[6],106%
same,"viability, T/C",[7],98%
same,"viability, T/C",[8],48.2%
same,"viability, T/C","second compound 0.316 µM, first compound 0.00316 µM",114%
same,"viability, T/C","second compound 0.316 µM, first compound 0.01 µM",112%
same,"viability, T/C",[9],116%
same,"viability, T/C",[10],108%
same,"viability, T/C",[11],93.8%
same,"viability, T/C",[12],53.7%
same,"viability, T/C","second compound 1 µM, first compound 0.00316 µM",118%
same,"viability, T/C","second compound 1 µM, first compound 0.01 µM",120%
same,"viability, T/C",[13],124%
same,"viability, T/C",[14],114%
same,"viability, T/C",[15],97.7%
same,"viability, T/C",[16],43.4%
